From patent US8530512B2, “Broad spectrum gram-positive antimicrobials and anthelmintics with efficacy against drug-resistant strains and Mycobacterium species” (priority 2004, dated 2013)
≈ marks a conversion by molar mass, not a printed value. Read-outs that look alike come from different tables or passages of the source.

Assays:
[1] = tested on: Staphylococcus aureus ATCC 29213; experiment: microbe, parasite or virus in culture; type: cell-based; details: Staphylococcus aureus, ATCC29213
[2] = tested on: Staphylococcus aureus MRSA MC-1; experiment: microbe, parasite or virus in culture; type: cell-based; details: Staphylococcus aureus, MRSA
[3] = tested on: Enterococcus faecium VRE 1; experiment: microbe, parasite or virus in culture; type: cell-based
Streptococcus pyogenes = experiment: microbe, parasite or virus in culture; type: cell-based
Bacillus cereus = experiment: microbe, parasite or virus in culture; type: cell-based
M. smegmatis = experiment: MIC assay; type: cell-based; details: Mycolicibacterium smegmatis; Table 6; read-out: MIC M. smegmatis
Bacillus anthracis = experiment: microbe, parasite or virus in culture; type: cell-based
Bacillus megaterium = experiment: microbe, parasite or virus in culture; type: cell-based; details: Priestia megaterium
Bacillus subtilis = experiment: microbe, parasite or virus in culture; type: cell-based
[4] = tested on: Corynebacterium pseudodiphthericum; experiment: microbe, parasite or virus in culture; type: cell-based; details: Corynebacterium pseudodiphtheriticum
[5] = tested on: Corynebacterium diphtheriae Tox−; experiment: microbe, parasite or virus in culture; type: cell-based
Corynebacterium xerosis = experiment: microbe, parasite or virus in culture; type: cell-based
[6] = tested on: Enterococcus faecium VRE 14; experiment: microbe, parasite or virus in culture; type: cell-based
[7] = tested on: Enterococcus faecalis ATCC 29212; experiment: microbe, parasite or virus in culture; type: cell-based; details: Enterococcus faecalis, ATCC29212
[8] = tested on: Staphylococcus aureus ATCC 25923; experiment: microbe, parasite or virus in culture; type: cell-based; details: ATCC25923
[9] = tested on: Staphylococcus aureus MRSA MC-4; experiment: microbe, parasite or virus in culture; type: cell-based
Streptococcus mitis = experiment: microbe, parasite or virus in culture; type: cell-based
Streptococcus agalactiae = experiment: microbe, parasite or virus in culture; type: cell-based
[10] = tested on: Streptococcus pneumoniae ATCC 49619; experiment: microbe, parasite or virus in culture; type: cell-based; details: ATCC49619
Listeria monocytogenes = experiment: microbe, parasite or virus in culture; type: cell-based
Mycobacterium bovis BCG = experiment: microbe, parasite or virus in culture; type: cell-based; details: Mycobacterium tuberculosis variant bovis BCG
Escherichia coli = experiment: microbe, parasite or virus in culture; type: cell-based
Pseudomonas aeruginosa = experiment: microbe, parasite or virus in culture; type: cell-based
Mycobacterium chelonae = experiment: MIC assay; type: cell-based; details: Table 6; read-out: MIC M. chelonae
Mycobacterium fortuitum = experiment: MIC assay; type: cell-based; details: Mycolicibacterium fortuitum; Table 6; read-out: MIC M. fortuitum
[11] = tested on: several strains of bacteria; experiment: Kirby-Bauer disc diffusion assay; type: cell-based; details: bioassay-directed fractionation
Experimental: The crude extract was then fractionated by flash column chromatography, using a 42 mm ID column, silica gel 60 as the stationary phase, and CH2Cl2 as the eluting solvent. Typically, 100-150, 10 mL fractions were collected and assayed for microbial growth inhibition. […] The column fractions, including the active component, were also analyzed by thin-layer chromatography (TLC) using Baker-flex® silica gel IB2-F plates (with fluorescent indicator) and CH2Cl2 as the eluting solvent (see FIG. 1).

[12] = tested on: vancomycin-resistant enterococci; experiment: organism not typed; type: cell-based
[13] = tested on: methicillin-resistant Staphylococcus aureus; experiment: microbe, parasite or virus in culture; type: cell-based
[14] = tested on: Gram-negative bacteria tested; experiment: organism not typed; type: cell-based; details: read-out: MICs
[15] = tested on: Gram-positive bacteria tested; experiment: organism not typed; type: cell-based
C. elegans = experiment: motility assay; type: in vivo; parameters: key to Movement score, 1/1600 / Movement score, 1/800 / Movement score, 1/400 / Movement score, 1/200 / Movement score, 1/100: normal (−); slow (+); very slow (++); not motile/paralyzed (+++); details: Ive 1 ng/μL in all wells
C. elegans L1 larvae = experiment: developmental assay; type: in vivo; parameters: key to Developmental score, 1/1600 / Developmental score, 1/800 / Developmental score, 1/400 / Developmental score, 1/200 / Developmental score, 1/100: dead (+++); distressed (++); slightly delayed (+); the same as M9-only untreated wells (−); details: after four days, Ive 1 ng/μL in each well

## COc1cc(O)cc(/C=C/c2ccccc2)c1 [CL-3, 3-hydroxy-5-methoxystilbene]
[1]
  MIC: 32 µg/mL (≈ 141 µM)
[1]; Table 6, read-out: MIC S. aureus ATCC 29213
  MIC: 16 µg/mL (≈ 70.7 µM)
[2]
  MIC: 32 µg/mL (≈ 141 µM)
[2]; read-out: MIC S. aureus MC-1
  MIC: 16 µg/mL (≈ 70.7 µM)
[3]; Enterococcus faecium, VRE
  MIC: 16 µg/mL (≈ 70.7 µM)
[3]; Table 3
  MIC E. faecium VRE 1, G+: 32 µg/mL (≈ 141 µM)
Streptococcus pyogenes; Streptococcus pyogenes
  MIC: 16 µg/mL (≈ 70.7 µM)
Streptococcus pyogenes; Table 3
  MIC S. pyogenes, G+: 16 µg/mL (≈ 70.7 µM)
Bacillus cereus; Bacillus cereus
  MIC: 16 µg/mL (≈ 70.7 µM)
Bacillus cereus; Table 3
  MIC B. cereus, G+ (anthrax surrogate): 16 µg/mL (≈ 70.7 µM)
M. smegmatis
  MIC: 64 µg/mL (≈ 283 µM)
Bacillus anthracis
  MIC: 4 µg/mL (≈ 17.7 µM)
Bacillus megaterium
  MIC: 64 µg/mL (≈ 283 µM)
Bacillus subtilis
  MIC: 16 µg/mL (≈ 70.7 µM)
[4]
  MIC: 16 µg/mL (≈ 70.7 µM)
[5]
  MIC: 32 µg/mL (≈ 141 µM)
Corynebacterium xerosis
  MIC: 16 µg/mL (≈ 70.7 µM)
[6]
  MIC: 16 µg/mL (≈ 70.7 µM)
[7]
  MIC: 16 µg/mL (≈ 70.7 µM)
[8]
  MIC: 32 µg/mL (≈ 141 µM)
[9]
  MIC: 32 µg/mL (≈ 141 µM)
Streptococcus mitis
  MIC: 64 µg/mL (≈ 283 µM)
Streptococcus agalactiae
  MIC: 32 µg/mL (≈ 141 µM)
[10]
  MIC: 8 µg/mL (≈ 35.4 µM)
Listeria monocytogenes
  MIC: 32 µg/mL (≈ 141 µM)
Mycobacterium bovis BCG; M bovis BCG, Example 3
  MIC: 25.6 µg/mL (≈ 113 µM)
Mycobacterium bovis BCG; Table 2, Mycobacterium bovis BCG
  MIC: 26 µg/mL (≈ 115 µM)
Escherichia coli
  MIC: > 128 µg/mL
Pseudomonas aeruginosa
  MIC: > 128 µg/mL
Mycobacterium chelonae
  MIC: 16 µg/mL (≈ 70.7 µM)
Mycobacterium fortuitum
  MIC: 16 µg/mL (≈ 70.7 µM)
[11]
  growth inhibition: inhibited the growth
[12]
  MIC: 32 µg/mL (≈ 141 µM)
[13]
  MIC: 32 µg/mL (≈ 141 µM)
[14]
  MIC: > 128 µg/mL
[15]
  growth inhibition of Gram-positive bacteria: inhibit the growth of all Gram-positive bacteria tested
C. elegans; dilution 1/100 of stock (10.24 μg/μL; SK-03-92 1.024 μg/μL)
  Movement score, 1/100: +++
C. elegans; dilution 1/200 of stock (10.24 μg/μL; SK-03-92 1.024 μg/μL)
  Movement score, 1/200: +++
C. elegans; dilution 1/400 of stock (10.24 μg/μL; SK-03-92 1.024 μg/μL)
  Movement score, 1/400: +
C. elegans; dilution 1/800 of stock (10.24 μg/μL; SK-03-92 1.024 μg/μL)
  Movement score, 1/800: −
C. elegans; dilution 1/1600 of stock (10.24 μg/μL; SK-03-92 1.024 μg/μL), overnight 20° C.
  Movement score, 1/1600: −
C. elegans L1 larvae; dilution 1/100
  Developmental score, 1/100: +++
C. elegans L1 larvae; dilution 1/200
  Developmental score, 1/200: +
C. elegans L1 larvae; dilution 1/400
  Developmental score, 1/400: −
C. elegans L1 larvae; dilution 1/800
  Developmental score, 1/800: −
C. elegans L1 larvae; dilution 1/1600
  Developmental score, 1/1600: −
